{"source": "patent US8338471B2", "about": "“(2,5-dioxoimidazolidin-i-yl)-n-hydroxy-acetamides as metalloproteinase inhibitors” (Medivir AB, priority 2005, dated 2012)", "assay_type_in_all_cases": "biochemical", "key": {"[1]": {"biological_target": "T1, recombinant human TACE (Homo sapiens, UniProt P78536)", "T1 construct": "purchased R&D Systems", "T1 sequence (P78536 215-824)": "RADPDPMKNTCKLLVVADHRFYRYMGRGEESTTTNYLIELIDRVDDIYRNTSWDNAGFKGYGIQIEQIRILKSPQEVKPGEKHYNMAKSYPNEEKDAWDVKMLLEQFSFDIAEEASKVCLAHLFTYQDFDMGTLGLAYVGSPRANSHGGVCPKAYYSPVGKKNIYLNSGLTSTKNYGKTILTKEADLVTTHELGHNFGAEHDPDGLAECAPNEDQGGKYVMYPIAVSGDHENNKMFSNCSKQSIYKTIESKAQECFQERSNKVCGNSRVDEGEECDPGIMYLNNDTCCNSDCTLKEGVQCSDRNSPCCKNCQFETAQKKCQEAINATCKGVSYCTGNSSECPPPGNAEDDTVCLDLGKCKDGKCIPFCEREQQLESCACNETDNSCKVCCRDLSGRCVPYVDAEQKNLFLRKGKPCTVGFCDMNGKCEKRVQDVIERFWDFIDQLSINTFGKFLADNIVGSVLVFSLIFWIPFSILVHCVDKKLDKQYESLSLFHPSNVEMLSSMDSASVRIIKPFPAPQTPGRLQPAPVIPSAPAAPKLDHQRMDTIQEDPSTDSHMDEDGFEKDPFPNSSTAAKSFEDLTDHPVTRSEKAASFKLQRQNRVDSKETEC", "assay": "TACE enzyme assay (FRET substrate), selectivity versus MMP-12", "conditions": "fold difference in Ki for TACE compared to MMP-12", "procedure": "The activity was measured by a continuous detection of increased fluorescence intensity during 12 min. The substrate consisted of a peptide with a fluorescent donor 7-methoxycoumarin (Mca) and a quenching acceptor 2,4-dinitrophenyl group (Dpa), typically Mca-P-L-A-Q-A-V-Dpa-R-S-S-S-R-NH2 (R&D Systems, ES003). The cleavage site by TACE is the peptide bond between Ala and Val. The compounds were tested at a range of concentrations while the enzyme and substrate concentrations were fixed. A typical TACE assay employs recombinant human TACE (supplied by R&D Systems) in an assay buffer (25 mM Tris-HCl, pH=9.0, 2.5 μM ZnCl2, 0.005% Brij 35). The enzyme concentration (TACE) used was 100 ng/ml, the substrate was prepared at a 100 μM stock solution in DMSO and a 96-well polypropylene plate was used for the reaction mixtures. To each well of the plate was added assay buffer 90.0 μl, enzyme (TACE) 0.09 μl and inhibitor 1 μl. The reactions were started by addition of substrate 10 μl/well, giving a substrate concentration of 10 μM and a total volume of 100 μl/well. The total concentration of DMSO was not above 1%. The assay was performed at ambient temperature. Product fluorescence ([…]) was monitored with a Thermo Labsystems Fluoroskan Ascent plate reader. The Ki was determined by Prism Software.\n(§1) The selectivity for MMP-12 over MMP-3 and TACE was evaluated for a representative selection of the compounds of the invention by comparing the Ki figures obtained when tested in the corresponding enzyme assays, such as those described above. The selectivity is presented as the fold difference in Ki for TACE and MMP-3 compared to MMP-12 and is calculated as the ratio Ki(TACE)/KiMMP-12 and Ki(MMP-3)/KiMMP-12 respectively."}, "[2]": {"biological_target": "T2, recombinant human MMP-3 (Homo sapiens, UniProt P08254)", "T2 construct": "purchased R&D Systems", "T2 sequence (P08254 100-477)": "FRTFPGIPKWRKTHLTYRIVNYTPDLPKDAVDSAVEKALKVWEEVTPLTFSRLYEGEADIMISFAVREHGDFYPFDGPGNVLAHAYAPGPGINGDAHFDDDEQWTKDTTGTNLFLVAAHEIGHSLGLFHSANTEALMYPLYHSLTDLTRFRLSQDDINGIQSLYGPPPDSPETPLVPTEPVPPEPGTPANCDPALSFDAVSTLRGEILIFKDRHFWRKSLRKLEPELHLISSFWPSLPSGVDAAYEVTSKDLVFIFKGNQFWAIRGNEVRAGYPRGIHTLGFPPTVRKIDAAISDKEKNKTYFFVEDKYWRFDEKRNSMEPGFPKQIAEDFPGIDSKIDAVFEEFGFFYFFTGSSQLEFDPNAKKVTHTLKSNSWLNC", "assay": "MMP-3 enzyme assay (FRET substrate), selectivity versus MMP-12", "conditions": "fold difference in Ki for MMP-3 compared to MMP-12", "procedure": "The activity was measured by a continuous detection of increased fluorescence intensity during 12 min. The substrate consisted of a peptide with a fluorescent donor 7-methoxycoumarin (Mca) and a quenching acceptor 2,4-dinitrophenyl group (Dpa), typically Mca-Arg-Pro-Lys-Pro-Val-Glu-Nval-Trp-Arg-Lys(Dnp)-NH2 (R&D Systems, ES002). The cleavage site by MMP-3 is the peptide bond between Glu and Nval. The compounds were tested at a range of concentrations, the enzyme concentration (MMP-3) was fixed at 400 ng/ml and the substrate concentrations was 10 μM. The MMP-3 assay used employs recombinant human MMP-3 (supplied by R&D Systems) in an assay buffer of 50 mM Tris-HCl, 200 mM calcium acetate at pH=7.5. The MMP-3 enzyme was preactivated by dilution to 0.119 mg/ml into 1 mM APMA (p-aminophenylmercuric acetate) followed by incubation at 37° C. for 24 hours. The substrate was prepared at a 100 μM stock solution in DMSO and a 96-well polypropylene plate was used for the reaction mixtures. To each well of the plate was added assay buffer 90.0 μl, enzyme (MMP-3) 0.3 μl and inhibitor 1 μl. The reactions were started by addition of substrate, 10 μl/well, to a total volume of 100 μl/well. The total concentration of DMSO was not above 1%. The assay was performed at ambient temperature. Product fluorescence ([…]) was monitored with a Thermo Labsystems Fluoroskan Ascent plate reader. The Ki was determined by Prism Software.\nas §1"}, "[3]": {"biological_target": "T3, recombinant human MMP-12 (Homo sapiens, UniProt P39900)", "T3 construct": "purchased R&D Systems; host or cells: mouse myeloma cell line NS-40 (so in the source)", "T3 sequence (P39900 106-470)": "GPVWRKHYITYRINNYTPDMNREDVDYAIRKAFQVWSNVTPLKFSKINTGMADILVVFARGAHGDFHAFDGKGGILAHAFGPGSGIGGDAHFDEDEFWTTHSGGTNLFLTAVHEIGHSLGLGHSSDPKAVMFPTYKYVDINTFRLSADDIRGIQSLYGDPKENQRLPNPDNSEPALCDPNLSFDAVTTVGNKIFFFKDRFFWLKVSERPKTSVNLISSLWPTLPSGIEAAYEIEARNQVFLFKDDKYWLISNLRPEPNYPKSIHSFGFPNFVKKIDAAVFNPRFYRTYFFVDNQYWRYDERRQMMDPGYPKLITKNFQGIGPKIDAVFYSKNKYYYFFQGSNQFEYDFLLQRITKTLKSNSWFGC", "assay": "MMP-12 enzyme assay (FRET substrate)", "procedure": "A typical MMP-12 enzyme assay employs recombinant human MMP-12 catalytic domain expressed and purified as described by Parkar A. A. et al, (2000), Protein Expression and Purification, 20:152. The purified enzyme can be used to monitor inhibitors of activity as follows: MMP-12 (50 ng/ml final concentration) is incubated for 60 minutes at room temperature with the synthetic substrate Mac-Pro-Cha-Gly-Nva-His-Ala-Dpa-NH2 in assay buffer (0.1M “Tris-HCl” (trade mark) buffer, pH 7.3 containing O.1M NaCl, 20 mM CaCl2, 0.020 mM ZnCl and 0.05% (w/v) “Brij 35” (trade mark) detergent) in the presence (5 concentrations) or absence of inhibitors. Activity is determined by measuring the fluorescence at λex 320 nm and λem 405 nm. Percent inhibition is calculated as follows: % Inhibition is equal to the (Fluorescenceplus inhibitor−Fluorescencebackground); divided by the (Fluorescenceminus inhibitor−Fluorescencebackground);\nA favoured assay employs full length recombinant human MMP-12, amino acid residues 1 to 470 (Shapiro et al 1993, J Biol Chem 268:23824-23829) expressed in mouse myeloma cell line NS-40. The purified rhMMP-12 typically has the N terminal sequence L17PLNSSTSLE and an SDS-PAGE apparent molecular mass of approx. 56 kDa. Such proteins are available from R&D Systems, USA as a lyophilised 0.2 um filtered solution of 25 mM MES, 0.15M NaCl, 10 mMCaCl2, 0.15% Brij 35, pH 5.5. Auto-activation of the rhMMP-12 can be achieved by dilution to 0.05 mg/ml into TCNB buffer (50 mMTris, 10 mM CaCl2, 0.15M NaCl, 0.05% Brij 35, pH 7) and incubation at 37 degrees for 30 hours. A preferred buffer for MMP work is 50 mM Tris.HCl, pH 7.5, 200 mM Ca acetate.\nSuitable FRET substrates include (7-methoxycoumarin-4-yl)acetyl-Pro-Leu-Gly-Leu-(3-(2,4-dinitrophenoyl)-L-2,3-diaminopropionyl)-Ala-Arg-NH2, commercially available from R&D Systems, USA. Typical specific activities are >500 picomol/min/ug, with rhMMP-12 measured with 10 uM of this substrate, 20 ng activated enzyme in 100 ul TCNB buffer at room temperature.\nAn alternative general MMP substrate is Dnp-PLGLWAD-R-NH2.\nCategory A indicates ≦50 nM inhibition, category B indicates 51-200 nM inhibition and category C indicates >200 nM: […]"}}}
{"compound": "CC(C)[C@H](C(=O)NO)N1C(=O)N[C@@H](CCc2ccc(-c3ccccc3)cc2)C1=O", "note": "(stereo in doubt) [Example 5, 2-[4-(2-Biphenyl-4-yl-ethyl)-2,5-dioxo-imidazolidin-1-yl]-N-hydroxy-3-methyl-butyramide]", "values": [{"measurement": "Ki(TACE)/Ki(MMP-12)", "setting": "[1]", "value": ">4500"}, {"measurement": "Ki(MMP-3)/Ki(MMP-12)", "setting": "[2]", "value": 71}]}
{"compound": "CC(C)[C@H](C(=O)NO)N1C(=O)N[C@@H](COCc2ccc(Br)cc2)C1=O", "note": "(stereo in doubt) [Example 13i, 2-[4-(4-Bromobenzyloxymethyl)-2,5-dioxo-imidazolidin-1-yl]-N-hydroxy-3-methyl-butyramide]", "values": [{"measurement": "Ki(TACE)/Ki(MMP-12)", "setting": "[1]", "value": ">190"}, {"measurement": "Ki(MMP-3)/Ki(MMP-12)", "setting": "[2]", "value": ">190"}]}
{"compound": "CC(C)[C@H](C(=O)NO)N1C(=O)N[C@@H](CCc2ccc(Oc3ccccc3)cc2)C1=O", "note": "(stereo in doubt) [Example 26, 2-{2,5-Dioxo-4-[2-(4-phenoxyphenyl)-ethyl]-imidazolidin-1-yl}-N-hydroxy-3-methyl-butyramide]", "values": [{"measurement": "Ki", "setting": "[3]", "value": "≤ 50", "unit": "nM"}]}
{"compound": "CC(C)[C@H](C(=O)NO)N1C(=O)N[C@@H](CCc2ccccc2)C1=O", "note": "[Example 1]", "values": [{"measurement": "Ki(TACE)/Ki(MMP-12)", "setting": "[1]", "value": 380}, {"measurement": "Ki(MMP-3)/Ki(MMP-12)", "setting": "[2]", "value": 140}]}
{"compound": "CC(C)[C@H](C(=O)NO)N1C(=O)N[C@H](CCc2ccccc2)C1=O", "note": "[Example 7, 2-(2,5-Dioxo-4-phenethyl-imidazolidin-1-yl)-N-hydroxy-3-methyl-butyramide]", "values": [{"measurement": "Ki", "setting": "[3]", "value": "51 to 200", "unit": "nM"}, {"measurement": "Ki(TACE)/Ki(MMP-12)", "setting": "[1]", "value": ">80"}, {"measurement": "Ki(MMP-3)/Ki(MMP-12)", "setting": "[2]", "value": 53}]}
{"compound": "O=C(NO)[C@@H](Cc1ccccc1)N1C(=O)N[C@@H](CCc2ccccc2)C1=O", "note": "[Example 10, 2-(2,5-Dioxo-4-phenethyl-imidazolidin-1-yl)-N-hydroxy-3-phenhyl-propionamide]", "values": [{"measurement": "Ki", "setting": "[3]", "value": "≤ 50", "unit": "nM"}, {"measurement": "Ki(TACE)/Ki(MMP-12)", "setting": "[1]", "value": ">150"}, {"measurement": "Ki(MMP-3)/Ki(MMP-12)", "setting": "[2]", "value": 34}]}
{"compound": "CC(C)(C)[C@H](C(=O)NO)N1C(=O)N[C@@H](CCc2ccccc2)C1=O", "note": "[Example 12, 2-(2,5-Dioxo-4-phenethyl-imidazolidin-1-yl)-N-hydroxy-3,3-dimethyl-butyramide]", "values": [{"measurement": "Ki(TACE)/Ki(MMP-12)", "setting": "[1]", "value": 245}, {"measurement": "Ki(MMP-3)/Ki(MMP-12)", "setting": "[2]", "value": 122}]}
{"compound": "CC(C)[C@H](C(=O)NO)N1C(=O)N[C@@H](COCc2ccc(C(F)(F)F)cc2)C1=O", "note": "[Example 14, 2-[2,5-Dioxo-4-(4-trifluoromethyl-bezyloxymethyl)-imidazolidin-1-yl]-N-hydroxy-3-methyl-butyramide]", "values": [{"measurement": "Ki", "setting": "[3]", "value": "≤ 50", "unit": "nM"}, {"measurement": "Ki(TACE)/Ki(MMP-12)", "setting": "[1]", "value": ">500"}, {"measurement": "Ki(MMP-3)/Ki(MMP-12)", "setting": "[2]", "value": ">500"}]}
{"compound": "CC(C)[C@H](C(=O)NO)N1C(=O)N[C@@H](COCc2cccc(F)c2)C1=O", "note": "[Example 15, 2-[4-(3-Fluorobenzyloxymethyl)-2,5-dioxo-imidazolidin-1-yl]-N-hydroxy-3-methyl-butyramide]", "values": [{"measurement": "Ki", "setting": "[3]", "value": "51 to 200", "unit": "nM"}, {"measurement": "Ki(TACE)/Ki(MMP-12)", "setting": "[1]", "value": ">700"}, {"measurement": "Ki(MMP-3)/Ki(MMP-12)", "setting": "[2]", "value": 120}]}
{"compound": "CC(C)[C@H](C(=O)NO)N1C(=O)N[C@@H](CCCCNC(=O)c2ccccc2)C1=O", "note": "[Example 25h]", "values": [{"measurement": "Ki", "setting": "[3]", "value": "> 200", "unit": "nM"}]}
{"compound": "Cc1ccccc1CCC1NC(=O)N(C(C(=O)NO)C(C)C)C1=O", "note": "(centres unmarked) [Example 28, 2-[2,5-Dioxo-4-(2-o-tolylethyl)-imidazolidin-1-yl]-N-hydroxy-3-methyl-butyramide]", "values": [{"measurement": "Ki", "setting": "[3]", "value": "≤ 50", "unit": "nM"}]}
{"compound": "Cc1cccc(CCC2NC(=O)N(C(C(=O)NO)C(C)C)C2=O)c1", "note": "(centres unmarked) [Example 29, 2-[2,5-Dioxo-4-(2-m-tolylethyl)-imidazolidin-1-yl]-N-hydroxy-3-methyl-butyramide]", "values": [{"measurement": "Ki", "setting": "[3]", "value": "≤ 50", "unit": "nM"}]}
{"compound": "COc1ccccc1CCC1NC(=O)N(C(C(=O)NO)C(C)C)C1=O", "note": "(centres unmarked) [Example 31, N-Hydroxy-2-{4-[2-(2-methoxyphenyl)-ethyl]-2,5-dioxo-imidazolidin-1-yl}-3-methyl-butyramide]", "values": [{"measurement": "Ki", "setting": "[3]", "value": "≤ 50", "unit": "nM"}]}
{"compound": "COc1cccc(CCC2NC(=O)N(C(C(=O)NO)C(C)C)C2=O)c1", "note": "(centres unmarked) [Example 32, N-Hydroxy-2-{4-[2-(3-methoxyphenyl)-ethyl]-2,5-dioxoimidazolidin-1-yl}-3-methylbutyramide]", "values": [{"measurement": "Ki(TACE)/Ki(MMP-12)", "setting": "[1]", "value": 140}, {"measurement": "Ki(MMP-3)/Ki(MMP-12)", "setting": "[2]", "value": ">200"}]}
{"compound": "COc1ccc(CC[C@@H]2NC(=O)N([C@@H](C(=O)NO)C(C)C)C2=O)cc1", "note": "[Example 33, N-Hydroxy-2-{4-[2-(4-methoxyphenyl)-ethyl]-2,5-dioxoimidazolidin-1-yl}-3-methylbutyramide]", "values": [{"measurement": "Ki", "setting": "[3]", "value": "≤ 50", "unit": "nM"}]}
{"compound": "CCc1ccc(CC[C@@H]2NC(=O)N([C@@H](C(=O)NO)C(C)C)C2=O)cc1", "note": "[Example 34, 2-{4-[2-(4-Ethylphenyl)-ethyl]-2,5-dioxoimidazolidin-1-yl}-N-hydroxy-3-methyl-butyramide]", "values": [{"measurement": "Ki", "setting": "[3]", "value": "≤ 50", "unit": "nM"}]}
{"compound": "CC(C)[C@H](C(=O)NO)N1C(=O)N[C@@H](CCc2cccc(F)c2)C1=O", "note": "[Example 37, 2-{4-[2-(3-Fluoro-phenyl)-ethyl]-2,5-dioxoimidazolidin-1-yl}-N-hydroxy-3-methylbutyramide]", "values": [{"measurement": "Ki", "setting": "[3]", "value": "≤ 50", "unit": "nM"}]}
{"compound": "CC(C)[C@H](C(=O)NO)N1C(=O)N[C@@H](CCc2ccc(Cc3ccccc3)cc2)C1=O", "note": "[Example 39, 2-{4-[2-(4-Benzylphenyl)-ethyl]-2,5-dioxoimidazolidin-1-yl}-N-hydroxy-3-methylbutyramide]", "values": [{"measurement": "Ki", "setting": "[3]", "value": "≤ 50", "unit": "nM"}]}
{"compound": "CC(C)[C@H](C(=O)NO)N1C(=O)N[C@@H](CCc2ccc(C(=O)Cc3ccccc3)cc2)C1=O", "note": "[Example 40, 2-{2,5-Dioxo-4-[2-(4-phenylacetyl-phenyl)-ethyl]-imidazolidin-1-yl}-N-hydroxy-3-methylbutyramide]", "values": [{"measurement": "Ki", "setting": "[3]", "value": "≤ 50", "unit": "nM"}]}
